Data published in PMC12298648, “An Evaluation of the Cytotoxicity and Safety Profile of Usnic Acid for a Broad Panel of Human Cancers and Normal Cells with Respect to Its Enantiospecificity” (Molecules, 2025).
Values after ≈ are worked out from the molar mass of the structure shown. Where two headings read alike, the source gives them in different places.

Columns and labels:
FTC133 = experiment: MTT viability assay, FTC133 follicular thyroid carcinoma cells; assay type: cell-based, human; details: for Cell viability: FTC-133, 24 h; for IC50: Homo sapiens, FTC-133
From the text: (§1) Cell lines of different origins were used in the study and grouped as follows: prostate panel (human prostate carcinomas: DU145, derived from metastatic site: brain; grade IV PC3, derived from metastatic site: bone; LNCaP, derived from the metastatic site: lymph node; prostate epithelial, PNT2), colon panel (colorectal adenocarcinomas: HT29, originating from a primary tumor; Duke’s type C DLD-1, with the potential to lymph node metastasis; highly metastatic HCT116; colon epithelial cells CCD 841 CoN), thyroid panel (follicular thyroid carcinoma FTC133, anaplastic thyroid carcinoma 8505C, papillary thyroid carcinoma TPC-1, normal thyroid follicular epithelial Nthy-ori 3–1), breast panel (ER-positive breast adenocarcinoma MCF7, ER-negative breast adenocarcinoma MDA-MB-231, breast epithelial MCF10A), brain panel (neuroblastoma SH-SY5Y, glioblastoma U-87 MG, murine astrocytes C8D1A). All cell lines were purchased from Merck (Darmstadt, Germany).
(§2) Cells were grown under standard conditions (37 °C, 5% CO2) and culture media (DMEM/F12 for PNT2, PC3, FTC133, 8505 C, MDA-MB-231, TPC-1; DMEM Low Glucose for DU145; DMEM High Glucose for HCT116, DLD-1, SH-SY5Y, U87MG, C8D1A; MEM with NEAA for MCF7; MEM for CCD 841 CoN; McCoy’s for HT29; RPMI1640 with sodium pyruvate for LNCaP; DMEM/F12 with 20 ng/mL epidermal growth factor (EGF), 10 μg/mL insulin, 0.5 μg/mL hydrocortisone, 100 ng/mL cholera toxin) for MCF10A), supplemented with 10% fetal bovine serum (FBS) or 5% donor horse serum for MCF10A, and 1% antibiotics solution (10,000 U penicillin and 10 mg streptomycin/mL). The tested substances were prepared as 10 mg/mL stock solutions in DMSO and further diluted in the culture media to the working concentrations. Cells were treated with UA enantiomers at the concentration range of 0–50 µg/mL. The influence of DMSO on cell viability was also examined, with the final concentration […], and no toxic effect was noted.
(§3) The cells were seeded onto 96-well plates at a density of 1.5 × 10^4 cells/well. After 24 h UA enantiomers were added. Cell viability was determined after 24, 48, and 72 h by the MTT assay, as described previously. Doxorubicin was used as a reference cytostatic drug. All analyses were performed in triplicate; cell viability was expressed as % of control, untreated cells (mean ± SD), and IC50 values (concentration at which cell viability is inhibited by 50%), if possible.
(§4) The selectivity index (SI) was calculated, if possible, by dividing the IC50 value obtained for non-cancerous cells line by the IC50 values obtained for appropriate cancer cell line, as described previously. […] The values above 3 indicate good selectivity.

DU145 cells = details: DU145, 72 h, cited from earlier work
8505C = experiment: MTT viability assay, 8505C anaplastic thyroid carcinoma cells; assay type: cell-based, human; details: for Cell viability: 24 h; for IC50: Homo sapiens
From the text: as §1, §2, §3

HepG2 cells = tested on: HepG2 cells; set-up: method as in PMID 40368021; details: cited from earlier work
MCF7 cells = tested on: MCF7 cells; set-up: method as in not printed ('another' study); details: MCF7, 72 h, ref not given ('another' study), cited from earlier work
U87MG = experiment: MTT viability assay, glioblastoma U87MG cells; assay type: cell-based, human; details: 24 h
From the text: as §1, §2, §3

PC3 = experiment: MTT viability assay, PC3 prostate cancer cells; assay type: cell-based, human; details: for IC50: Homo sapiens, PC-3; for Cell viability: PC3, 24 h
From the text: as §1, §2, §3, §4

MCF10A = experiment: MTT viability assay, normal breast epithelial cells; assay type: cell-based, human; details: for IC50: Homo sapiens, MCF-10A, MCF10A normal cells; for Cell viability: MCF10A, 24 h
From the text: as §1, §2, §3

HCT116 = experiment: MTT viability assay, HCT116 colon cancer cells; assay type: cell-based, human; details: for Cell viability: HCT116, 24 h; for IC50: Homo sapiens, HCT-116
From the text: as §1, §2, §3

CCD 841 CoN = experiment: MTT viability assay, normal colon epithelial cells; assay type: cell-based, human; details: for Cell viability: CCD 841 CoN, 24 h; for IC50: Homo sapiens, CCD-841CoN
From the text: as §1, §2, §3

[1] = recalculated from µM by the authors

## CC(=O)C1=C(O)C=C2Oc3c(C(C)=O)c(O)c(C)c(O)c3[C@]2(C)C1=O [UA(−), (−)-usnic acid]
FTC133; 2.5 µg/mL
  Cell viability: 108.51 % of control
FTC133; 5 µg/mL
  Cell viability: 106.14 % of control
FTC133; 10 µg/mL
  Cell viability: 87.63 % of control
FTC133; 20 µg/mL
  Cell viability: 89.56 % of control
FTC133; 30 µg/mL
  Cell viability: 93.33 % of control
FTC133; 40 µg/mL
  Cell viability: 86.67 % of control
FTC133; 50 µg/mL
  Cell viability: 83.25 % of control
FTC133; FTC133, 48 h
  IC50: > 50 mg/L
FTC133; FTC133, 72 h
  IC50: 35.3 mg/L (≈ 103 µM)
FTC133; IC50 Nthy ori 3-1 / IC50 FTC133, 72 h
  selectivity index (SI): 0.83
DU145 cells; [1]
  IC50: 15.8 mg/L
DU145 cells; read-out: IC50
  IC50: 45.9 µM
8505C; 2.5 µg/mL
  Cell viability: 105.18 % of control
8505C; 5 µg/mL
  Cell viability: 107.97 % of control
8505C; 10 µg/mL
  Cell viability: 100.80 % of control
8505C; 20 µg/mL
  Cell viability: 100.00 % of control
8505C; 30 µg/mL
  Cell viability: 102.79 % of control
8505C; 40 µg/mL
  Cell viability: 103.98 % of control
8505C; 50 µg/mL
  Cell viability: 94.42 % of control
8505C; 48 h
  IC50: > 50 mg/L
8505C; 72 h
  IC50: > 50 mg/L
HepG2 cells; HepG2, 48 h
  IC50 (hepatotoxicity): 16.0 mg/L (≈ 46.5 µM)
HepG2 cells; HepG2, 72 h
  IC50 (hepatotoxicity): 18.3 mg/L (≈ 53.1 µM)
MCF7 cells; [1]
  IC50: 17.8 mg/L
MCF7 cells; read-out: IC50
  IC50: 51.7 µM
U87MG; 2.5 µg/mL
  Cell viability: 102.34 % of control
U87MG; 5 µg/mL
  Cell viability: 102.19 % of control
U87MG; 10 µg/mL
  Cell viability: 101.69 % of control
U87MG; 20 µg/mL
  Cell viability: 101.59 % of control
U87MG; 30 µg/mL
  Cell viability: 111.54 % of control
U87MG; 40 µg/mL
  Cell viability: 106.02 % of control
U87MG; 50 µg/mL
  Cell viability: 98.56 % of control
PC3; PC3, 48 h
  IC50: 37.8 mg/L (≈ 110 µM)
PC3; PC3, 72 h
  IC50: 34.8 mg/L (≈ 101 µM)
PC3; IC50 PNT2 / IC50 PC3, 48 h
  selectivity index (SI): 0.93
PC3; IC50 PNT2 / IC50 PC3, 72 h
  selectivity index (SI): 0.79
PC3; 2.5 µg/mL
  Cell viability: 102.94 % of control
PC3; 5 µg/mL
  Cell viability: 94.68 % of control
PC3; 10 µg/mL
  Cell viability: 91.59 % of control
PC3; 20 µg/mL
  Cell viability: 89.10 % of control
PC3; 30 µg/mL
  Cell viability: 76.52 % of control
PC3; 40 µg/mL
  Cell viability: 69.15 % of control
PC3; 50 µg/mL
  Cell viability: 68.91 % of control
MCF10A; 48 h
  IC50: > 50 mg/L
MCF10A; 72 h
  IC50: > 50 mg/L
MCF10A; 2.5 µg/mL
  Cell viability: 102.83 % of control
MCF10A; 5 µg/mL
  Cell viability: 100.30 % of control
MCF10A; 10 µg/mL
  Cell viability: 101.52 % of control
MCF10A; 20 µg/mL
  Cell viability: 98.59 % of control
MCF10A; 30 µg/mL
  Cell viability: 100.10 % of control
MCF10A; 40 µg/mL
  Cell viability: 103.54 % of control
MCF10A; 50 µg/mL
  Cell viability: 99.39 % of control
HCT116; 2.5 µg/mL
  Cell viability: 112.65 % of control
HCT116; 5 µg/mL
  Cell viability: 108.16 % of control
HCT116; 10 µg/mL
  Cell viability: 96.26 % of control
HCT116; 20 µg/mL
  Cell viability: 84.97 % of control
HCT116; 30 µg/mL
  Cell viability: 72.86 % of control
HCT116; 40 µg/mL
  Cell viability: 71.90 % of control
HCT116; 50 µg/mL
  Cell viability: 73.33 % of control
HCT116; HCT116, 48 h
  IC50: 26.2 mg/L (≈ 76.1 µM)
HCT116; HCT116, 72 h
  IC50: 10.7 mg/L (≈ 31.1 µM)
CCD 841 CoN; 2.5 µg/mL
  Cell viability: 98.61 % of control
CCD 841 CoN; 5 µg/mL
  Cell viability: 98.89 % of control
CCD 841 CoN; 10 µg/mL
  Cell viability: 96.39 % of control
CCD 841 CoN; 20 µg/mL
  Cell viability: 99.72 % of control
CCD 841 CoN; 30 µg/mL
  Cell viability: 96.11 % of control
CCD 841 CoN; 40 µg/mL
  Cell viability: 96.94 % of control
CCD 841 CoN; 50 µg/mL
  Cell viability: 93.06 % of control
CCD 841 CoN; 48 h
  IC50: > 50 mg/L
CCD 841 CoN; 72 h
  IC50: > 50 mg/L
